The values that follow come from patent US8916583B2, “Therapeutic compositions for intranasal administration of zolpidem” (Renascence Therapeutics Limited, priority 2012, dated 2014).

Where a name gives a salt, the structure may show the parent alone.

One series has as its system toad palate. Nature of the series: Nasal ciliotoxicity evaluation, in-situ toad palate model. The arrangement: key to Ciliotoxicity: no effect: cilia on the mucosa was intact, dense and beating actively; mild: less than 25% ciliostasis; moderate: cilia was disarranged or only partial cilia left; all cilia lost and apical cell border was severe deformed. Conditions: 0.2 ml, 4 h, light microscope 400×. It counts as in vivo. Here is the method:
The nasal ciliotoxicity of zolpidem tartrate, solubilizing agents and several nasal solution formulations were investigated using an in-situ toad palate model. Briefly, 0.2 ml test formulations were administrated on a toad palate. […] The mucocilia was examined with a light microscope at enlargements of 400× (n=3˜6). Saline and a typical nasal mucociliary toxic agent—sodium deoxycholatee—were used as a negative and positive control, respectively. Study protocol was illustrated in Table 11, and the degree of ciliotoxicity caused by the test formulations was coarse classified as follows: “no effect”: cilia on the mucosa was intact, dense and beating actively; “mild”: less than 25% ciliostasis; “moderate”: cilia was disarranged or only partial cilia left; “severe”: all cilia lost and apical cell border was severe deformed.

In the next series the test system is plasma proteins. The settings on record: cited from earlier work.
For series [1] the following is noted: cited from earlier work.
Series [2] is described as follows: Pharmacokinetic study in beagle dogs. The settings on record: for CL/F / Rel F(5 mg oral) / Tmax: beagle dogs; for Rel F(5 mg oral): relative to 5 mg oral; for AUC(0-inf) / AUC(0-t) / Cmax / MRT / half-life / Tmax: both, beagle, dog, plasma. On the procedure: Eight beagle dogs (4 male and 4 female) participated in the study. […] Water was given ad libitum throughout the study. Food was provided 4 hours post-dose. Blood samples were collected at pre-dose (0 min) and at 3, 6, 9, 12, 15, 20, 30, 45 minutes; and at 1, 1.5, 2, 3, 4, 6, 8, 24 hours post-dose. After plasma-separation process, the samples were analyzed by a validated LC-MS/MS method.

For series [3] the following is noted: cited from earlier work. The source holds these as a separate data set.
Setting [4] is: intranasal administration (ZLP-B01), 1.25 mg/dog.
Where [5] appears, read: intranasal administration (ZLP-B01), 2.5 mg/dog.
[6] abbreviates: intranasal administration (ZLP-B01), 5 mg/dog.

Regarding “sodium deoxycholate [1% sodium deoxycholate]”, in the series on toad palate, the Ciliotoxicity entry is recorded as “severe” and the Optical microscopic observation result is recorded as “no cilia on the mucosa”.
By CL/F is commonly meant clearance divided by bioavailability, as obtained after extravascular dosing. By AUC(0-inf) is commonly meant the area under the concentration-time curve extrapolated to infinity. What is called AUC(0-t) is exposure summed from dosing to a finite time, without extrapolation to infinity. As usually defined, the Cmax is the highest concentration seen after dosing. Usually MRT stands for a mean duration of stay, worked out from the concentration-time curve. A word on the half-life: it is the time in which the quantity being followed falls by half. A word on the Tmax: it is the time from dosing to the highest level. Regarding `Cc1ccc(-c2nc3ccc(C)cn3c2CC(=O)N(C)C)cc1` [Zolpidem, N,N,6-trimethyl-2-(4-methylphenyl)-imidazo[1,2-a]pyridine-3-acetamide], the “bound to plasma proteins” value in the series with plasma proteins is recorded as “about 92%”. The “time to peak plasma concentrations” value in series [1] (after oral doses) was no more than 3 h. Further, in series [1] (in vivo), the elimination half-life result is on record as “about 2.5 hours”. The absolute bioavailability entry in series [1] (oral, first-pass metabolism) was “about 70%”. Further, the CL/F came out at 110 ± 41 L/h in series [2] (setting [4]); 144 ± 76 L/h in series [2] (setting [5]); 181 ± 137 L/h in series [2] (setting [6]); 204 ± 96 L/h in series [2] (oral administration (marketed tablet, Stilnox), 5 mg/dog); 110 ± 69 L/h in series [2] (oral administration (marketed tablet, Stilnox), 10 mg/dog). Besides, the “Rel F(5 mg oral)” value in series [2] (setting [4]) is recorded as 167%; in series [2] (setting [5]), 145%; in series [2] (setting [6]) it was 124%. Further, the AUC(0-inf) in series [2] (inhaled or intranasal, 1.25 mg) came to 12.9 ± 5.2 ng·h/mL; in series [2] (inhaled or intranasal, 2.5 mg) it was 22.4 ± 12.1 ng·h/mL; in series [2] (inhaled or intranasal, 5 mg) it was 38 ± 18.5 ng·h/mL; in series [2] (po, 5 mg) it was 30.7 ± 16.9 ng·h/mL; in series [2] (po, 10 mg), 121 ± 64.6 ng·h/mL. Further, the AUC(0-t) in series [2] (inhaled or intranasal, 1.25 mg) was 12.8 ± 5.24 ng·h/mL; in series [2] (inhaled or intranasal, 2.5 mg), 22.2 ± 12.2 ng·h/mL; in series [2] (inhaled or intranasal, 5 mg), 38 ng·h/mL; in series [2] (po, 5 mg) it was 30.6 ng·h/mL; in series [2] (po, 10 mg) it was 120 ± 64.4 ng·h/mL. Further, the Cmax in series [2] (inhaled or intranasal, 1.25 mg) was determined as 13 ± 6.36 ng/mL; in series [2] (inhaled or intranasal, 2.5 mg) it was 22 ± 13.1 ng/mL; in series [2] (inhaled or intranasal, 5 mg) it was 33.3 ng/mL; in series [2] (po, 5 mg), 25.5 ng/mL; in series [2] (po, 10 mg), 128 ± 59.7 ng/mL. The MRT was 67.8 ± 10.8 min in series [2] (inhaled or intranasal, 1.25 mg); 74.4 ± 49.8 min in series [2] (inhaled or intranasal, 2.5 mg); 90 ± 19.8 min in series [2] (inhaled or intranasal, 5 mg); 100 ± 27.6 min in series [2] (po, 5 mg); 79.8 ± 18 min in series [2] (po, 10 mg). For the same compound, the half-life in series [2] (inhaled or intranasal, 1.25 mg) was 57 ± 10.8 min; in series [2] (inhaled or intranasal, 2.5 mg), 43.8 ± 13.8 min; in series [2] (inhaled or intranasal, 5 mg), 68.4 ± 11.4 min; in series [2] (po, 5 mg), 57.6 ± 10.2 min; in series [2] (po, 10 mg) it was 59.4 ± 12.6 min. The Tmax is 8.4 ± 1.8 min in series [2] (inhaled or intranasal, 1.25 mg, intranasal administration (ZLP-B01), 1.25 mg/dog); 8.4 ± 4.2 min in series [2] (inhaled or intranasal, 2.5 mg, intranasal administration (ZLP-B01), 2.5 mg/dog); 12.6 min in series [2] (inhaled or intranasal, 5 mg, intranasal administration (ZLP-B01), 5 mg/dog); 3 to 15 min in series [2] (inhaled or intranasal, 5 mg, range over dogs, intranasal administration, 5 mg/dog); 41.4 min in series [2] (po, 5 mg, oral administration (marketed tablet, Stilnox), 5 mg/dog); 19.8 to 120 min in series [2] (po, 5 mg, range over dogs, oral administration, 5 mg/dog). In series [2] (po, 10 mg, oral administration (marketed tablet, Stilnox), 10 mg/dog), the Tmax was found to be 25.8 ± 11.4 min.
Take `Cc1ccc(-c2nc3ccc(C)cn3c2CC(=O)N(C)C)cc1` [Zolpidem tartrate]: the aqueous solubility result in series [3] (at 20° C.) is reported as “about 23 mg/ml”. Also, in series [3] (water), the “solubility in water” value was “slightly soluble”.
